Values quoted from earlier work as cited in patent publication US9999656B2, “Treatment of short bowel syndrome patients with colon-in-continuity” (Shire-NPS Pharmaceuticals, Inc., priority 2004, dated 2018).

What was measured:
SBS jejunostomy patients = conditions: cited from earlier work
[1] = GLP-2; approximately; cited from earlier work

## glucagon-like peptide-2 [native GLP-2]
SBS jejunostomy patients; native GLP-2 400 μg twice daily for 35 days, p=0.040
  effect on wet weight absorption: 420 ± 480 g/day
SBS jejunostomy patients; open-label study, pharmacologic doses, SBS jejunostomy patients (Jeppesen et al.)
  intestinal wet weight absorption (in words): significant improvement in intestinal wet weight absorption
[1]
  half-life: approximately seven
